Calls of active or inactive are those of the source.

Assay [1] concerns the target Calpain-2 catalytic subunit (Sus scrofa, UniProt P43367). As to the kind of experiment: m-calpain protease blockers, concentration series – biochemical, fluorogenic peptide substrate, dose response (AID 1420). The format is functional.
For assay [2], the system named is HEK293. As to the kind of experiment: cells. As to conditions: Homo sapiens.
A further assay concerns the target Tumor necrosis factor (Homo sapiens, UniProt P01375). As to the kind of experiment: analog potency on TNFa NF-kB signaling – cell-based, revised, SAR follow-up (AID 2337). The assay is classed as functional.
In assay [3] the test system is BJ. The assay can be described thus: BJ-TERT fibroblast viability loss – cell-based, RAS-independent, luminescence, dose response (AID 1933). The format is functional. The note with it: Homo sapiens.
The test system of assay [4] is HEK293. As to the kind of experiment: cells. The assay is classed as functional, cell-based. The note with it: Homo sapiens.
Assay [5] can be described thus: Luminescent dose response cell-based high throughput screening assay for inhibitors of the Janus kinase 2 mutant JAK2V617F. [Related pubchem assays: 1446 (Primary screen.), 1521 (Confirmation assay.), 1486 (Counter screen.)]. The assay is classed as functional.
Assay [6] relates to BJ. As to the kind of experiment: BJ-TERT-LT-ST fibroblast viability loss – cell-based, RAS-independent, luminescence, dose response (AID 1935).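 Also: BJ fibroblasts immortalized with TERT plus LT and ST oncogenes.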 The assay is classed as functional. The note with it: Homo sapiens.
The next assay has as its system Vero. As to the kind of experiment: cells. The assay is classed as functional. The note with it: Chlorocebus sabaeus.
The target in assay [7] is T1, Nucleotide-binding oligomerization domain-containing protein 1 (Homo sapiens, UniProt Q9Y239).
T1 sequence (Q9Y239 whole entry): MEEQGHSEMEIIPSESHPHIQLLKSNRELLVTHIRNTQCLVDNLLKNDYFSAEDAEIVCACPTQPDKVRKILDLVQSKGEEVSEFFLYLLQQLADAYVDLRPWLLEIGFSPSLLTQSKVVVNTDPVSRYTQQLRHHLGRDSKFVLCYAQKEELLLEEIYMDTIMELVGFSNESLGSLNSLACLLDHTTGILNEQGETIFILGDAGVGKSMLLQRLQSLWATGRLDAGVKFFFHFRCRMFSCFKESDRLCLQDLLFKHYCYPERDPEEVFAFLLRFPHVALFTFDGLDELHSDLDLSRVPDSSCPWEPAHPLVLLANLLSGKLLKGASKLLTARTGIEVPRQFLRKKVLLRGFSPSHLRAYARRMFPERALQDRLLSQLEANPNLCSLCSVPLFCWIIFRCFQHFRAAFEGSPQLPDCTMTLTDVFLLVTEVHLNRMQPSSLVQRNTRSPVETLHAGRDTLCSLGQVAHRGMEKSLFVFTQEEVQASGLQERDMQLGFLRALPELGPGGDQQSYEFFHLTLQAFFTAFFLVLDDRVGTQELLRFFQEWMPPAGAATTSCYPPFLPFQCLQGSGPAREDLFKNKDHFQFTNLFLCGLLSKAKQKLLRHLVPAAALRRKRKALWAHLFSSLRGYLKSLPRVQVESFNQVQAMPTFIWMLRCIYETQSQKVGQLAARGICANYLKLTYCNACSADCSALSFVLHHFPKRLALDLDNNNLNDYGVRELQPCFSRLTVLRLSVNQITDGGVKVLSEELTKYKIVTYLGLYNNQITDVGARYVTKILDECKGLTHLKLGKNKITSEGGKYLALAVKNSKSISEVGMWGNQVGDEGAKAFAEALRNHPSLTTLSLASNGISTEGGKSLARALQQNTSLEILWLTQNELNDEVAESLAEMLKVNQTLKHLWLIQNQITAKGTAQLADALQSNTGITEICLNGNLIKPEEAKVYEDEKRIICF
As to the kind of experiment: blockers of NOD1 pathway activity – revised, SAR follow-up (AID 2333). The format is functional.

Assay [8] concerns BJ. As to the kind of experiment: cells. The format is functional, cell-based. As to conditions: Homo sapiens, read-out: EC50.
Assay [9] in a line: DRD fibroblast viability loss – cell-based, non-viral oncogenic, luminescence, dose response (AID 1934). The assay is classed as functional. As to conditions: Homo sapiens.
In assay [10] the test system is BJ. The assay can be described thus: growth inhibition of engineered Ras-driven BJ cells – cell-based, alamar blue fluorescence, cherrypicked samples, dose response (AID 2631).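 Also: confirmatory dose-response assay in RAS-dependent BJ fibroblasts engineered with TERT, LT and ST, with cytotoxicity read by fluorescence.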 The format is functional. As to conditions: Homo sapiens. A general note: Resazurin is reduced to fluorescent resorufin, in cell work by metabolically active cells.
Assay [11] concerns HEK293. As to the kind of experiment: NOD2 signaling inhibitors in MDP-stimulated cells, cell-based, uHTS, luminescence (AID 2001). The assay is classed as functional. The note with it: Homo sapiens.
For assay [12], the system named is HEK293. The assay can be described thus: cells. The assay is classed as functional, cell-based. The note with it: Homo sapiens. The source holds these as a separate data set.
The subject of assay [13] is HEK293. The assay can be described thus: inhibition of NOD1-driven NF-kB reporter – cell-based, luminescence, uHTS, primary screen (AID 1578). The assay is classed as functional. The note with it: Homo sapiens.
For assay [14], the target named is Photoreceptor-specific nuclear receptor (Homo sapiens, UniProt Q9Y5X4). The assay can be described thus: ligands suppressing NR2E3 nuclear receptor activity – biochemical, TR-FRET, dose response (AID 463256). The assay is classed as functional. A general note: TR-FRET usually uses a lanthanide donor and a delayed reading to cut background.
The target of assay [15] is Peroxisome proliferator-activated receptor gamma/Nuclear receptor corepressor 2 (Homo sapiens, UniProt P37231+Q9Y618). As to the kind of experiment: Counterscreen for NR2E3 inverse agonists: TR-FRET-based biochemical high throughput dose response assay to identify inverse agonists of the interaction between peroxisome proliferator-activated receptor gamma (PPARg) and nuclear receptor co-repressor 2 (NCOR2). The format is functional.

Assay [16] deals with T2, RNA-binding protein pos-1 (Caenorhabditis elegans, UniProt G5EF15).
T2 sequence (G5EF15 whole entry): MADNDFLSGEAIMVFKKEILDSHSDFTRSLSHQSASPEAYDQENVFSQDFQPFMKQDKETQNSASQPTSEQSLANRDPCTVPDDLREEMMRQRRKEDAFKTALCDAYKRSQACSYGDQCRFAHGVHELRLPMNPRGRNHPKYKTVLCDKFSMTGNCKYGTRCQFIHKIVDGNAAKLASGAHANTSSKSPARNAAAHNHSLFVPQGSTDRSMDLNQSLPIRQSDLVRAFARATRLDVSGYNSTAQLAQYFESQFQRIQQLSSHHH
As to the kind of experiment: disruptors of C. elegans POS-1 RNA interaction – biochemical, fluorescence polarization, dose response (AID 1964).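 Also: purified POS-1 fused to maltose binding protein made in E. coli; potency of compounds blocking POS-1 binding to fluorescent RNA.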 On the technique in general: Fluorescence polarisation rises when a labelled molecule tumbles more slowly, as on binding a larger partner.

Assay [17] can be described thus: antiviral protection against BTV-induced cell death – arbovirus, BSR cells, confirmation (AID 1250).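 Also: protection from viral cytopathic effect measured as cell viability by ATP luminescence.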 The format is functional.
The target of assay [18] is T3, Zinc finger protein mex-5 (Caenorhabditis elegans, UniProt Q9XUB2).
T3 sequence (Q9XUB2 whole entry): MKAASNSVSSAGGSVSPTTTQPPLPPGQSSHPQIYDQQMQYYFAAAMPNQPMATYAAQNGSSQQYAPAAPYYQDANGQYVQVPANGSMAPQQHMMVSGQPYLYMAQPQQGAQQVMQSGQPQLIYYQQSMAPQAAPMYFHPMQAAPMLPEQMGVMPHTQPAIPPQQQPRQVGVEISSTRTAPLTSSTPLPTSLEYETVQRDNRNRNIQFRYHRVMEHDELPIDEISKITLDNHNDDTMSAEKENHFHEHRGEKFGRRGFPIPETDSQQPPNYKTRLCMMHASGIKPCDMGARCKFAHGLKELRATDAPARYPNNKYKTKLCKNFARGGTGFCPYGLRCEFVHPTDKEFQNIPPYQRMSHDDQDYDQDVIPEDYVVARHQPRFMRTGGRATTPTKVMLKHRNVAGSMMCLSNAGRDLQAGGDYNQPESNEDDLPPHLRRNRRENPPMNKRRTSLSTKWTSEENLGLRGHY
The assay can be described thus: potency of MEX-5 RNA-binding blockers – biochemical, C. elegans, fluorescence polarization, dose response (AID 1960).

For assay [19], the target named is T4, Bifunctional protein GlmU (Mycobacterium tuberculosis, UniProt P9WMN3).
T4 sequence (P9WMN3 whole entry): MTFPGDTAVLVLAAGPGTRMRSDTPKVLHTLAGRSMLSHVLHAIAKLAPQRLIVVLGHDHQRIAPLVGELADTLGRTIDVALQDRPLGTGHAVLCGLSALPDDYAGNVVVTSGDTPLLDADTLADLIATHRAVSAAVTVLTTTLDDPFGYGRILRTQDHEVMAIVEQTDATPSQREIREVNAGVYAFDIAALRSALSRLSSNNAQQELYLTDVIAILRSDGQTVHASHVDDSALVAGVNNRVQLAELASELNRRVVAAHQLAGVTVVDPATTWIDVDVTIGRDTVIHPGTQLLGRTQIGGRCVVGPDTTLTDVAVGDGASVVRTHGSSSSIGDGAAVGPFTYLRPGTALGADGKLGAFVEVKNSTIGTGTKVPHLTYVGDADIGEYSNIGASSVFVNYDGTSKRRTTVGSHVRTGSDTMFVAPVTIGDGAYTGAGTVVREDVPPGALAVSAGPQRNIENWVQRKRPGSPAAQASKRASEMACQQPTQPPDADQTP
As to the kind of experiment: Inhibitors of Mycobacterial Glucosamine-1-phosphate acetyl transferase (GlmU). Secondary screen. Also noted: species or system Mycobacterium tuberculosis H37Rv.

Assay [20] addresses Heat shock protein HSP 90-alpha (Homo sapiens, UniProt P07900). The assay is classed as functional, organism-based.
In another assay the target is Cytochrome P450 2C19 (Homo sapiens, UniProt P33261). As to the kind of experiment: qHTS Assay for Inhibitors and Substrates of Cytochrome P450 2C19. [Related pubchem assays: 410 ]. The assay is classed as ADME. As to conditions: read-out: Potency.
A further assay concerns the target Cytochrome P450 2D6 (Homo sapiens, UniProt P10635). As to the kind of experiment: qHTS Assay for Inhibitors and Substrates of Cytochrome P450 2D6. [Related pubchem assays: 410 ]. As to conditions: read-out: Potency. The format is ADME.
Assay [21] deals with Neuropeptide Y receptor type 2 (Homo sapiens, UniProt P49146). The format is functional, cell-based.
Assay [22] can be described thus: NIH3T3 cell viability loss – ATP luminescence, mouse fibroblasts, counter-screen, dose response (AID 2010).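 Also: cells exposed to compound for about 90 hours before reading.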 The format is functional, cell-based.
Assay [23] addresses Neuropeptide Y receptor type 1 (Homo sapiens, UniProt P25929). The assay is classed as functional.
Assay [24] in a line: Trypanosoma cruzi growth suppression in host cells – NIH3T3 host cells, beta-gal luminescence, confirmation (AID 2044).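 Also: intracellular parasites grown in NIH/3T3 mouse fibroblasts as host cells; luminescent beta-galactosidase reporter signal from transgenic T. cruzi replicating inside host cells; inhibitors lower the luminescence signal.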 The format is functional, cell-based.

Sequence of Neuropeptide Y receptor type 1 (P25929 whole entry): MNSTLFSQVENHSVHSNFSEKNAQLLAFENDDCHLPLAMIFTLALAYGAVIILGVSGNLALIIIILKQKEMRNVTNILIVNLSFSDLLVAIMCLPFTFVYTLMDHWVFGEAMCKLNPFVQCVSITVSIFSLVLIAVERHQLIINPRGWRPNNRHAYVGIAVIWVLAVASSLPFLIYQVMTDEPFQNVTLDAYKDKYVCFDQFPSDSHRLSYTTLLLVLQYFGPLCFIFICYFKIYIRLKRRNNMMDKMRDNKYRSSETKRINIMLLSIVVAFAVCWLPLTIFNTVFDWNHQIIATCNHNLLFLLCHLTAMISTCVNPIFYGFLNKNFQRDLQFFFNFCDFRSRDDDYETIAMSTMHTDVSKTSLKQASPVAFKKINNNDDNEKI
Sequence of Cytochrome P450 2C19 (P33261 whole entry): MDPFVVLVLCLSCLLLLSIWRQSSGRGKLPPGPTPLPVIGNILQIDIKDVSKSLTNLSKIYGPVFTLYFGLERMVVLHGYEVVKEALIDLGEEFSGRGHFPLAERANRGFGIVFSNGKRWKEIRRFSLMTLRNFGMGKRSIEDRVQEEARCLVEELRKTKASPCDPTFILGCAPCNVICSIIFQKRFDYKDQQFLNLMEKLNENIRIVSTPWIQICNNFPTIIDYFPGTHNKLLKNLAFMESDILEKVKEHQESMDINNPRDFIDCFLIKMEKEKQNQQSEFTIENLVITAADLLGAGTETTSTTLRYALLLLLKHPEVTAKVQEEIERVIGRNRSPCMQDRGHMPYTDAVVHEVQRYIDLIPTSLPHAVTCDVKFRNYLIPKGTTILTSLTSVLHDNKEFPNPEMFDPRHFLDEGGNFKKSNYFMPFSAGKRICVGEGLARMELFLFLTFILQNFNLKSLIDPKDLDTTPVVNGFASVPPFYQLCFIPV
Sequence of Cytochrome P450 2D6 (P10635 whole entry): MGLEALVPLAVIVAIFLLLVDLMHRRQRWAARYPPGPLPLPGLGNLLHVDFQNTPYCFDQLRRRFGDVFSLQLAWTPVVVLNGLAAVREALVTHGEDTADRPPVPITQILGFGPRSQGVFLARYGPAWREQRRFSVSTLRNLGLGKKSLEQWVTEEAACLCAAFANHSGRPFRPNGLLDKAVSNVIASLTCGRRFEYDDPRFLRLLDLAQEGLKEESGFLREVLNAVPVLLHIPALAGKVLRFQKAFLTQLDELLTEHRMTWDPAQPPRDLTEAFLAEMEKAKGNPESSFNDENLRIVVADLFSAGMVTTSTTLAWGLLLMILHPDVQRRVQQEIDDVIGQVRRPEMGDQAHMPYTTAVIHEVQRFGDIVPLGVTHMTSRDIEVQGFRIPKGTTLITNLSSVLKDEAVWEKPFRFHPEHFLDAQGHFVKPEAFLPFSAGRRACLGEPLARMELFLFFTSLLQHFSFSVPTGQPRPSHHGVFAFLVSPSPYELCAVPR
Sequence of Calpain-2 catalytic subunit (P43367 whole entry): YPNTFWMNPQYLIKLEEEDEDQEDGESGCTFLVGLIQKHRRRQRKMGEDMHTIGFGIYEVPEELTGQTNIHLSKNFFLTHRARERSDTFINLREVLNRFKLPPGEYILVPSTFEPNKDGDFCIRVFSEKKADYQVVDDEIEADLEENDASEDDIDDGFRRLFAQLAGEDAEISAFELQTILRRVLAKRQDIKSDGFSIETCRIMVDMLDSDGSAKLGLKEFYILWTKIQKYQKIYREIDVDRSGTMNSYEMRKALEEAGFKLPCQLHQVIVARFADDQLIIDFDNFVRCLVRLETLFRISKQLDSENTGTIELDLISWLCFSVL
Sequence of Peroxisome proliferator-activated receptor gamma/Nuclear receptor corepressor 2 (P37231 whole entry): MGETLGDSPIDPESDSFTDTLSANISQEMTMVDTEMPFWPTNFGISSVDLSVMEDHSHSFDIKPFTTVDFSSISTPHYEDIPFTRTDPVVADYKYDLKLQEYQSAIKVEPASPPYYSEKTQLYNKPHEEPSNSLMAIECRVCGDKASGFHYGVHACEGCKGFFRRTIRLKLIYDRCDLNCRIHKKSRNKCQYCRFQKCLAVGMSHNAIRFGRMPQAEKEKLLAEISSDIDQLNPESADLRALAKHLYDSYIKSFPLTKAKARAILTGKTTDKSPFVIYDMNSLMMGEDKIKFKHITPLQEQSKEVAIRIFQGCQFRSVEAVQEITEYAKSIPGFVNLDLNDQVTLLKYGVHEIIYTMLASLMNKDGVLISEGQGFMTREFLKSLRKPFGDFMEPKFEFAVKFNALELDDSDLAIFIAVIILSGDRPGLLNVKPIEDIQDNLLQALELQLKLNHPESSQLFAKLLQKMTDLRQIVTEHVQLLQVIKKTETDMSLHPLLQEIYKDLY
Sequence of Peroxisome proliferator-activated receptor gamma/Nuclear receptor corepressor 2 (Q9Y618 whole entry): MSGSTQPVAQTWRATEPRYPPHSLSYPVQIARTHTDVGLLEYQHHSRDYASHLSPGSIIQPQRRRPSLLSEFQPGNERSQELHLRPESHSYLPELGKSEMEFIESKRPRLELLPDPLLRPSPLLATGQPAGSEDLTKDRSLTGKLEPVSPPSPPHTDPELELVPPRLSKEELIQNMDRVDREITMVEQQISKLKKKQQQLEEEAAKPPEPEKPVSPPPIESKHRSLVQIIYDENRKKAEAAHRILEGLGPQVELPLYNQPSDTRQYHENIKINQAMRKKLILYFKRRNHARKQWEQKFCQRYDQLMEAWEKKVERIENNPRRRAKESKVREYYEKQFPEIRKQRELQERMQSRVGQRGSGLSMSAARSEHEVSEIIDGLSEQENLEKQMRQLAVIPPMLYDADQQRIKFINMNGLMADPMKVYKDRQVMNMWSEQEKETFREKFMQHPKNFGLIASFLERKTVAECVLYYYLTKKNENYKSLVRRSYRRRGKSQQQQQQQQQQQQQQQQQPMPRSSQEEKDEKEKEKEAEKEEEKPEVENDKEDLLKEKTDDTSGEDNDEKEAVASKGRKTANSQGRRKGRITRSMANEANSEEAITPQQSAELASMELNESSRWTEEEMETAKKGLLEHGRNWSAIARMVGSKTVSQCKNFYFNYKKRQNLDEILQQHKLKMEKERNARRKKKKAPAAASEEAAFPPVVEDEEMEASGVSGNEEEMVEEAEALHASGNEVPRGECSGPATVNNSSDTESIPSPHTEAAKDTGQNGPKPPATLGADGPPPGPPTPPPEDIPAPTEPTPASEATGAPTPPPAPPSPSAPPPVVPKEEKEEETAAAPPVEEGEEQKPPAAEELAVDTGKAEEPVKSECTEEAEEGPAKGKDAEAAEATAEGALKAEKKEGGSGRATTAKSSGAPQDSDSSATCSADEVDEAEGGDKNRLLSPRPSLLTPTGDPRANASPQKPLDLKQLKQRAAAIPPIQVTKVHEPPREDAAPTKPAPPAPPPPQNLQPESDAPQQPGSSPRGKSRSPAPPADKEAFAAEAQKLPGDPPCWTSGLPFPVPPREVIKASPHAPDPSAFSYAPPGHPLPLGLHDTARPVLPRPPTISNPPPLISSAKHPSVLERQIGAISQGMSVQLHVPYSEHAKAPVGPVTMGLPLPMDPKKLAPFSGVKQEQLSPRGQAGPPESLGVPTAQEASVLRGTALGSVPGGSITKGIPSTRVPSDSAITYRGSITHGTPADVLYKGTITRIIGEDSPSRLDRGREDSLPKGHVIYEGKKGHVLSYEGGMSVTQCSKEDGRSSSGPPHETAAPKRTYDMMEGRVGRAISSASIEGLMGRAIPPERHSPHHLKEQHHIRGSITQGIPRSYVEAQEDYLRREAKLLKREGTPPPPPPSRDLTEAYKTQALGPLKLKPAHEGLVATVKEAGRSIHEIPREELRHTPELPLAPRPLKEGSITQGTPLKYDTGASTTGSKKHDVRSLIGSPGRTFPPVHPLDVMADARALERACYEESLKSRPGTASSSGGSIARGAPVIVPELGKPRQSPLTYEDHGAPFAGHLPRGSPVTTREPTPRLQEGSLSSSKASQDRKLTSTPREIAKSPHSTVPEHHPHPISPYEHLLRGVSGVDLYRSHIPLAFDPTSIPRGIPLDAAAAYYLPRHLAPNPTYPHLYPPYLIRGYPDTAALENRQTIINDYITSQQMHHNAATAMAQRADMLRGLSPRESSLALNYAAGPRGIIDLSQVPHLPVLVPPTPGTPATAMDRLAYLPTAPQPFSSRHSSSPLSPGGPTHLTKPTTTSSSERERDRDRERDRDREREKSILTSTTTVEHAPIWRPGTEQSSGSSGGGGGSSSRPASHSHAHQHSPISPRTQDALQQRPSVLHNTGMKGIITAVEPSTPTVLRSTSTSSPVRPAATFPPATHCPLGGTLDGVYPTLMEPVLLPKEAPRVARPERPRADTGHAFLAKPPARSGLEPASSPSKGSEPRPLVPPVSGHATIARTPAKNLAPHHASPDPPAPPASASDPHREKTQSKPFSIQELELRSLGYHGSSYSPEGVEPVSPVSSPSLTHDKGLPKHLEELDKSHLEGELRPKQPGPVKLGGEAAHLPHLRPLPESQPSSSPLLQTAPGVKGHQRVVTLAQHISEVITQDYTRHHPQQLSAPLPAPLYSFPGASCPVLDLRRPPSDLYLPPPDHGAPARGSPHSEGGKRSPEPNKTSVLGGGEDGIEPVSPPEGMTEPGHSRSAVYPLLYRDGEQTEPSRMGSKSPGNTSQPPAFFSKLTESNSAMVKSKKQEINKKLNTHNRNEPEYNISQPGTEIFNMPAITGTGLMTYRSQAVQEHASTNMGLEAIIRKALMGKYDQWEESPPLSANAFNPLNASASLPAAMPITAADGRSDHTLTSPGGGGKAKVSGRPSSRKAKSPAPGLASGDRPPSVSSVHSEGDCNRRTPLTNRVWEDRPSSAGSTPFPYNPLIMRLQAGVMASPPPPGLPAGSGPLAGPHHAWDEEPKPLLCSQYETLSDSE
Sequence of Tumor necrosis factor (P01375 whole entry): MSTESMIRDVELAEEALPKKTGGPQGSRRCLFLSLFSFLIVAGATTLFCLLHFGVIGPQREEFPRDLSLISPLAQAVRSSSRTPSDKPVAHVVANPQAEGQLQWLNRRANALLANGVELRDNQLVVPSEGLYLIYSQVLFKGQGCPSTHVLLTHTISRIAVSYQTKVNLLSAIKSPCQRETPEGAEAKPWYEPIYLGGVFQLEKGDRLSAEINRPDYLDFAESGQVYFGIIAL

As usually defined, the IC50 is the concentration that inhibits the measured activity by half. In the case of `C=CCNC(=S)N/N=C/c1cccc([N+](=O)[O-])c1`, in assay [1], the half-maximal inhibitory concentration (IC50) was 6.63 µM (active).

As usually defined, the EC50 is the concentration needed to bring the measured effect to its halfway point. One may read the CC50 as the concentration at which the toxic effect on the cells reaches its halfway point. On to `Cc1cccc(Nc2nc(N)nc(CCl)n2)c1C`, for which the IC50 is > 20 µM (inactive) with HEK293 [2]; 9.45 µM (active) on Tumor necrosis factor; 9.12 µM (active) in the assay on HEK293 [4]; 0.628 µM (active) in assay [5]; 4.04 µM (active) in [7]; 9.47 µM (active) in the assay with HEK293 [11]. Moreover, the IC50 in the assay on HEK293 [12] was > 20 µM (inactive). Also, the EC50 in the assay with BJ [3] is 2.19 µM (inconclusive); with BJ [6] it was > 75 µM (inconclusive); in the assay with BJ [8] it was 2.02 µM (active); in assay [9], 0.65 µM (active); with BJ [10] it was 6.44 µM (active); in the assay on HEK293 [13] it was 10.8 µM (active). In the assay on Vero, the CC50 is 2.11 µM (active).

Take `Cc1ccc2oc(=O)cc(CN3CCCCC3)c2c1`: the IC50 was 7.54 µM (active) in assay [14] and > 39.8 µM (not active) in assay [15].

Turning to `Cc1cc(/C=c2\sc3nc4ccccc4n3c2=O)c(C)n1-c1ccc(C(=O)O)cc1`, the EC50 in [16] and in [18] was > 300 µM (not active) throughout. Also, the IC50 in assay [17] was 25.8 µM (active); in assay [19], 171 µM (active). Further, in [20], the AC50 is 24.5 µM (active).

Regarding `COC(=O)NC(/C(C(=O)OC)=C(\C)NCc1ccccc1)c1cccc(F)c1` (stereo not drawn), the AC50 on Cytochrome P450 2C19 was 7.94 µM (inconclusive); at Cytochrome P450 2D6, 5.01 µM (inconclusive).

With `Cc1ccccc1N1CCN(CCCOc2ccc3c(C)cc(=O)oc3c2)CC1`, the IC50 in assay [21] and in assay [23] was > 35 µM (not active) in each case. The EC50 was 9.32 µM (active) in assay [22] and 0.124 µM (active) in [24].

The values are drawn from ChEMBL document CHEMBL1201862, “PubChem BioAssay data set” (2004).
